The text below walks through data of patent publication US5808139A (Ligand Pharmaceuticals Incorporated, priority 1994, dated 1998).

In general, Kd refers to the concentration at which binding is half-saturated. A word on the IC50: it is the midpoint of a concentration-inhibition curve.

Test [1] deals with T1, human progesterone receptor (Homo sapiens, UniProt P06401).
T1 sequence (P06401 1-933): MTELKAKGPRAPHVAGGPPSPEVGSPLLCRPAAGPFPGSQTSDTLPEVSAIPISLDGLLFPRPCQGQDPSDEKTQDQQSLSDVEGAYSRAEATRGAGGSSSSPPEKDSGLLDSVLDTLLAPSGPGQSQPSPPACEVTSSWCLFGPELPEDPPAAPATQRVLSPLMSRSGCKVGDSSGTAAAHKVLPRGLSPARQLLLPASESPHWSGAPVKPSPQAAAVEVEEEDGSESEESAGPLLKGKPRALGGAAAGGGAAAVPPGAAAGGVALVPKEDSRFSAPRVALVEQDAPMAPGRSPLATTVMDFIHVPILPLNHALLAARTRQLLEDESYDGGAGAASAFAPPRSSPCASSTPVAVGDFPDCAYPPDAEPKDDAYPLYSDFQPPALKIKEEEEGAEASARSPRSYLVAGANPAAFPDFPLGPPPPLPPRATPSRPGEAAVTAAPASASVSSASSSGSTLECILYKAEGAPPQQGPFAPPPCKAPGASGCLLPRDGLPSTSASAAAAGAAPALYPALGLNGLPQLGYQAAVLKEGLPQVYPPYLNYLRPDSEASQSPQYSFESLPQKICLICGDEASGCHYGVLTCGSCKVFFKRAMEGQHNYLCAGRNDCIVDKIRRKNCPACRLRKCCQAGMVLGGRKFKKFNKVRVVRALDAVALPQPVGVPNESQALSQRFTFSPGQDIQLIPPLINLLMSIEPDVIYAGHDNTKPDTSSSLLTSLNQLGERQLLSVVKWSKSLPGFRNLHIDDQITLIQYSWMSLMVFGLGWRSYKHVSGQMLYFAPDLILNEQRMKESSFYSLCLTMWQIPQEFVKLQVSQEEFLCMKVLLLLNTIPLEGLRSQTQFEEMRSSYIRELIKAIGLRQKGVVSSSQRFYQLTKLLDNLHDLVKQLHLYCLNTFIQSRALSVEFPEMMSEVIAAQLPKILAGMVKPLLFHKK
As to the kind of experiment: Progesterone receptor binding (displacement of 3H-progesterone, whole cell extract of transfected CV-1 cells). Also on record: expressed in transfected cells; host or cells: CV-1 cells (calcium phosphate transfection), whole cell extract. On the procedure:
These tests were conducted according to the following illustrative example.
CO2 for 40 hours prior to harvest.
After incubation, cells were harvested and washed in phosphate buffered saline. Whole cell receptor extract was prepared by homogenizing the harvested cells in Tris-HCl buffer, pH=7.4, containing 30% glycerol, 1 mM EDTA, 12 mM monothioglycerol, 1 mM PMSF, and 0.5M potassium chloride. The homogenate was incubated at 4° C. for 60 min with resuspension every 10 min. The suspension was centrifuged (105,000×g, 60 min) and the supernatant was collected and flash frozen in liquid nitrogen and stored frozen at -70° C.
To a […] final volume incubation mixture, […] of 7.5% (w/v) dextran-coated charcoal suspension in gelatin phosphate buffer was added. The mixture was vortexed and incubated at 4° C. for 10 min and then centrifuged at 3000 rpm for 10 min. The amount of bound tritiated hormone was determined by liquid scintillation spectrophotometry of an aliquot of the supernatant. […]
On the technique in general: Loss of bound radioactivity is the signal in a displacement assay; it reports binding, not function.

The subject of test [2] is progesterone receptor (T47D cells). As to the kind of experiment: Antagonist assay in T47D (human breast cancer) cells (Tables 1 and 2). It is filed as cell-based. Particulars: for Efficacy (% maximal response relative to RU-486), T47D cells: antagonist activity; for IC50: concentration required to reduce the maximal response by 50%, read-out: Potency (IC50), T47D cells. From the text: The functional activities of the cyclocymopol analogues in the human breast cell line, T47D, were also investigated. T47D cells have proven to be a particularly useful model to investigate the molecular actions of sex steroids because they contain endogenous functional receptors for, and respond to, progestins, and their respective antagonists. […] In T47D cells, progestins induce de novo synthesis of a plasma-associated alkaline phosphatase, which has been reported to be similar, if not identical, to the alkaline phosphatase present in the normal breast and human milk. These tests were conducted according to the following illustrative example.
The assay was also run using T47D (human breast cancer) cells.

Test [3] concerns human progesterone receptor altered at the Tau-1 location. In words: Co-transfection assay in CV-1 cells, progesterone receptor altered at Tau-1, antagonist activity. It counts as cell-based. Particulars: for Efficacy (% maximal response relative to RU-486), CV-1 cells: antagonist activity; for IC50: concentration required to reduce the maximal response by 50%, read-out: Potency (IC50), CV-1 cells. From the text: This assay is described in further detail in U.S. Pat. Nos. 4,981,784 and 5,071,773, which are incorporated herein by reference. The co-transfection assay provides a method for identifying functional ligands (either agonists which mimic, or antagonists which inhibit, the effect of hormones) for ligand-responsive receptor proteins.
The co-transfection assay provides a mechanism to evaluate ability of a compound to function as an agonist or antagonist of the activity modulated by an intracellular receptor. The co-transfection assay mimics an in vivo system in the laboratory. In the co-transfection assay, a cloned gene for an intracellular receptor is introduced by transfection (a procedure to induce cells to take up foreign genes) into a background cell substantially devoid of endogenous intracellular receptors. This introduced gene directs the recipient cells to make the intracellular receptor protein. A second gene is also introduced (co-transfected) into the same cells in conjunction with the intracellular receptor gene. This second gene functions as a reporter for the transcription-modulating activity of the target intracellular receptor. The reporter acts as a surrogate for the products normally expressed by a gene under control of the target receptor and its natural hormone.
A preferred reporter gene is one which expresses the firefly enzyme luciferase. The co-transfection assay can detect small molecule agonists or antagonists of target intracellular receptors. Exposing the cells to an agonist ligand increases reporter activity in the transfected cells that can be conveniently measured, reflecting ligand-dependent, intracellular receptor-mediated increases in reporter transcription. To detect antagonists, the co-transfection assay is carried out in the presence of a constant concentration of an agonist known to induce a defined reporter signal. Increasing concentrations of a test antagonist will decrease the reporter signal. The co-transfection assay is therefore useful to detect both agonists and antagonists of specific intracellular receptors. It determines not only whether a compound interacts with a particular intracellular receptor, but also whether this interaction mimics (agonizes) or blocks (antagonizes) the effects of the natural regulatory molecules on target gene expression.
Co-transfected cells are exposed to a medium to which is added the potential ligand that is being evaluated. If the candidate ligand diffuses into the cell and binds to the receptor and the resulting complex functions as an agonist, it binds to the co-transfected reporter gene and initiates transcription. When that gene is one that expresses, for example, luciferase, luciferase is produced which catalyzes a light-emitting reaction with its substrate luciferin. Thus, after cell lysis and the introduction of luciferin, the amount of light produced relative to the concentration of candidate ligand used in the assay provides a measure of the potency and efficacy of the compound tested. Antagonist activity is evaluated by adding the candidate ligand and a known agonist to the co-transfected cells.
The receptor cDNA was introduced in a mammalian expression vector under the control of the Rous Sarcoma virus LTR. […] A reporter vector was also transfected, containing a firefly luciferase gene under the control of the hormone-responsive promoter. […] The level of luciferase activity was then measured in cell extracts. Light emission is directly proportional to the effectiveness of the hormone-receptor complex in activating gene expression.
A total of three replicates per concentration point were tested for each compound, and the EC50 was calculated for each positive response. Both agonist and antagonist activity for each test compound was determined in parallel. […]

Take `C=C1CCCC(C)(C)C1Cc1cc(OC)c(Br)cc1OC(C)=O` (stereo in doubt) [B, (3S)-1-Debromocyclocymopol monomethyl ether, acetate]: in test [1], the Kd came to 35 nM. In addition, in test [2], the “Efficacy (% maximal response relative to RU-486), T47D cells” value is on record as 65% and the IC50 amounted to 85 nM. For the same molecule, in test [3], the “Efficacy (% maximal response relative to RU-486), CV-1 cells” value was determined as 45% and the IC50 is 400 nM.
Consider `C=C1CCCCC1Cc1ccc([N+](=O)[O-])cc1` (stereo not drawn) [Q, 1-Methylidene-2-(4'-nitrophenyl)methylcyclohexane], for which, in test [1], the Kd was 245 nM. In test [2], the “Efficacy (% maximal response relative to RU-486), T47D cells” value is given as 65% and the IC50 is 225 nM. Also, in test [3], the “Efficacy (% maximal response relative to RU-486), CV-1 cells” value is on record as 95% and the IC50 was 1200 nM.
In the case of `CC1(C)CC=CC(=O)C1Cc1ccc([N+](=O)[O-])cc1` (stereo not drawn) [MM, 6-(4'-Nitrophenyl)methyl-5.5-dimethylcyclohex-2-en-1-one], the Kd in test [1] was determined as 10000 nM. In test [2], the “Efficacy (% maximal response relative to RU-486), T47D cells” value stood at 90% and the IC50 came out at 390 nM. Besides, in test [3], the “Efficacy (% maximal response relative to RU-486), CV-1 cells” value is 74% and the IC50 amounted to 1770 nM.
Turning to `C=C1[C@H](O)C[C@@H](Br)C(C)(C)[C@@H]1Cc1cc(OC)c(Br)cc1O` [E, (3R,5R)-5-Hydroxycyclocymopol monomethyl ether], in test [1], the Kd came out at 925 nM. Besides, in test [2], the “Efficacy (% maximal response relative to RU-486), T47D cells” value came out at 85% and the IC50 stood at 475 nM. In test [3], the “Efficacy (% maximal response relative to RU-486), CV-1 cells” value came to 85% and the IC50 came out at 450 nM.
Consider `C=C1C[C@H](C)CC(C)(C)[C@@H]1Cc1cc(OC)c(Br)cc1O` (relative stereo) [BB, cis-1-Methylidene-2-(2'-hydroxy-4'-bromo-5'-methoxyphenyl)methyl-3,3,5-trimethyleyclohexane], for which the Kd in test [1] is 28 nM. In addition, in test [2], the “Efficacy (% maximal response relative to RU-486), T47D cells” value is 41% and the IC50 was 7190 nM. For the same molecule, in test [3], the “Efficacy (% maximal response relative to RU-486), CV-1 cells” value was 38% and the IC50 was found to be 5140 nM.
For `C=C1CCCC(C)(C)C1Cc1cc(OC)c(Br)cc1OC(=O)c1ccccc1` (stereo in doubt) [U, (3R)-1-Debromocyclocymopol monomethyl ether, benzoate], in that order: 190 nM, 80%, 300 nM, 95% and 1600 nM.
Turning to `C=C1C=C(C)[C@@H](CCO)C(C)(C)[C@@H]1Cc1cc(OC)c(Br)cc1O` (relative stereo) [JJ, trans-1-Methylidene-4-(2-hydroxy)ethyl-6-(2'-hydroxy-4'-bromo-5'-methoxyphenyl)methyl-3,5,5-trimethylcyclohex-2-ene], in test [1], the Kd stood at 625 nM. Also, in test [2], the “Efficacy (% maximal response relative to RU-486), T47D cells” value turned out to be 74% and the IC50 is 3600 nM. Moreover, in test [3], the “Efficacy (% maximal response relative to RU-486), CV-1 cells” value stood at 48% and the IC50 came to 30 nM.
In the case of `C=C1CCCC(C)(C)C1Cc1ccc(Br)cc1` (stereo not drawn) [O, 1-Methylidene-2-(4'-bromophenyl)methyl-3,3-dimethylcyclohexane], the Kd in test [1] came out at 445 nM. Further, in test [2], the “Efficacy (% maximal response relative to RU-486), T47D cells” value is listed as 85% and the IC50 is 850 nM. In addition, in test [3], the “Efficacy (% maximal response relative to RU-486), CV-1 cells” value worked out at 90% and the IC50 is 1000 nM.
`C=C1CCC(C)(C)C1Cc1cc(OC)c(Br)cc1O` (stereo not drawn) [P, 1-Methylidene-2-(2'-hydroxy-4'-bromo-5'-methoxyphenyl)methyl-3,3-dimethylcyclo-pentane]: the Kd in test [1] was found to be 440 nM. Moreover, in test [2], the “Efficacy (% maximal response relative to RU-486), T47D cells” value turned out to be 60% and the IC50 was 275 nM. Further, in test [3], the “Efficacy (% maximal response relative to RU-486), CV-1 cells” value is 100% and the IC50 is 1200 nM.
For the molecule `C=C1CC[C@@H](Br)C(C)(C)[C@@H]1Cc1cc(OC)c(Br)cc1OC(=O)OC` [T, (3R)-Cyclocymopol monomethyl ether, methyl carbonate], the Kd in test [1] was 185 nM. Further, in test [2], the “Efficacy (% maximal response relative to RU-486), T47D cells” value was 90% and the IC50 amounted to 300 nM. In test [3], the “Efficacy (% maximal response relative to RU-486), CV-1 cells” value was found to be 90% and the IC50 was 1580 nM.
For `C=C1C=C[C@@H](C)C(C)(C)[C@@H]1Cc1cc(OC)c(Br)cc1O` (relative stereo) [KK, trans-1-Methylidene-6-(2'-hydroxy-4'-bromo-5'-methoxyphenyl)methyl-4,5,5-trimethylcyclohex-2-ene], the Kd in test [1] amounted to 346 nM. In test [2], the “Efficacy (% maximal response relative to RU-486), T47D cells” value is 76% and the IC50 stood at 1300 nM. In addition, in test [3], the “Efficacy (% maximal response relative to RU-486), CV-1 cells” value stood at 75% and the IC50 came to 1600 nM.
On the same counts, the results for `C=C1C[C@@](C)(CO)CC(C)(C)[C@@H]1Cc1cc(OC)c(Br)cc1O` (relative stereo) [HH, trans-1-Methylidene-2-(2'-hydroxy-4'-bromo-5'-methoxyphenyl)methyl-3,3,5-trimethyl-5-(hydroxymethyl)cyclohexane] are 2310 nM, 81%, 1100 nM, 85% and 3000 nM.
